# From patent US8748426B2, “Inhibitors of diacylglycerol acyl transferase” (Piramal Enterprises Limited, priority 2009, dated 2014)
# Target: T1, hDGAT1 (Homo sapiens, UniProt O75907)
# T1 sequence (O75907 1-488): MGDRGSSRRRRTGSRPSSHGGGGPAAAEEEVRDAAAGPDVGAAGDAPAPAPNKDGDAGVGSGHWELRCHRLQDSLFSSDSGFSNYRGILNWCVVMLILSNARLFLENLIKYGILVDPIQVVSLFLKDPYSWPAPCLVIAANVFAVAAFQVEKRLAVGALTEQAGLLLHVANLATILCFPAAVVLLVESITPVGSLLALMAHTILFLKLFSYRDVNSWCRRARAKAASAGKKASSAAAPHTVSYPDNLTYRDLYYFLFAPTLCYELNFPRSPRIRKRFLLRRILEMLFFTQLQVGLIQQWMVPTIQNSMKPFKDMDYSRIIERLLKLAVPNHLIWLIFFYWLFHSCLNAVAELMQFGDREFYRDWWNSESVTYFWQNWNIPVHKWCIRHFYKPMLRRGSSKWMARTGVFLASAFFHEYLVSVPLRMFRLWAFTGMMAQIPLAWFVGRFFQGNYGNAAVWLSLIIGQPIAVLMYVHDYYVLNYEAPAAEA
# Assay: In-vitro DGAT1 assay (14C oleoyl CoA, hDGAT1 microsomes from Sf9 cells)
# Conditions: at 1 μM
row,Structure (SMILES),% Inhibition of hDGAT1
1,"CC(C)[C@@H](C(=O)O)N1Cc2ccc(-c3ccc(NC(=O)c4ccc(-c5ccccc5)cc4)cc3C(F)(F)F)cc2C1=O [Example 426, (S)-2-(6-(4-Biphenyl-4-ylcarboxamido-2-(trifluoromethyl)phenyl)-1-oxoisoindolin-2-yl)-3-methylbutanoic acid]",+ (10-50% Inhibition)
2,"CC(C)[C@@H](C(=O)O)N1Cc2ccc(-c3ccc(NC(=O)c4ccc(-c5ccccc5)cc4)cc3F)cc2C1=O [Example 602, (S)-2-(6-(4-([1,1′-Biphenyl]-4-ylcarboxamido)-2-fluorophenyl)-1-oxoisoindolin-2-yl)-3-methylbutanoic acid]",++ (>50% Inhibition)
3,"O=C(Nc1ccc(-c2ccc3c(c2)C(=O)N(C2CCC(C(=O)O)CC2)C3)cc1)c1ccc(-c2ccccc2)cc1 (stereo not shown) [Example 557, (1r,4r)-4-(6-(4-([1,1′-Biphenyl]-4-ylcarboxamido)phenyl)-1-oxoisoindolin-2-yl)cyclohexanecarboxylic acid]",++ (>50% Inhibition)
4,"CC(C)[C@@H](C(=O)O)N1Cc2ccc(-c3cnc(NC(=O)c4ccc(-c5ccccc5)cc4)cn3)cc2C1=O [Example 507, (S)-2-(6-(5-Biphenyl-4-ylcarboxamidopyrazin-2-yl)-1-oxoisoindolin-2-yl)-3-methylbutanoic acid]",++ (>50% Inhibition)
5,CC(C)[C@@H](C(=O)O)N1Cc2ccc(-c3ccc(NC(=O)c4cnc5ccccc5c4)cc3)cc2C1=O [Example 651],+ (10-50% Inhibition)
6,"Cc1ccc(C(=O)Nc2ccc(-c3ccc4c(c3)C(=O)N(C35C[C@@H]6C[C@@H](CC(C(=O)O)(C6)C3)C5)C4)cc2)cc1 [Example 572, (1r,3s,5R,7S)-3-(6-(4-(4-Methylbenzamido)phenyl)-1-oxoisoindolin-2-yl)adamantane-1-carboxylic acid]",++ (>50% Inhibition)

# Same assay, conditions: read-out: % Inhibition of hDGAT1
row,inhibition at 1 µM,Structure (SMILES)
1,> 50%,"Cc1cc(NC(=O)c2ccc(OC(F)(F)F)cc2)ccc1-c1ccc2c(c1)C(=O)N([C@H](C(=O)O)C(C)C)C2 [Example 476, (S)-3-Methyl-2-(6-(2-methyl-4-(4-(trifluoromethoxy)benzamido)phenyl)-1-oxoisoindolin-2-yl)butanoic acid]"
2,> 50%,"CC(C)[C@@H](C(=O)O)N1Cc2ccc(-c3ccc(NC(=O)c4ccc(OC(F)(F)F)cc4)cc3F)cc2C1=O [Example 608, (S)-2-(6-(2-Fluoro-4-(4-(trifluoromethoxy)benzamido)phenyl)-1-oxoisoindolin-2-yl)-3-methylbutanoic acid]"
3,10 to 50%,"O=C(O)CCCN1Cc2ccc(-c3ccc(NC(=O)Nc4cccc(C(F)(F)F)c4)cc3)cc2C1=O [Example 349, 4-(1-Oxo-6-(4-(3-(3-(trifluoromethyl)phenyl)ureido)phenyl)isoindolin-2-yl)butanoic acid]"
4,> 50%,"CC(C)[C@@H](C(=O)O)N1Cc2ccc(-c3ccc(NC(=O)c4ncc(-c5ccccc5)s4)cc3)cc2C1=O [Example 612, (S)-3-Methyl-2-(1-oxo-6-(4-(5-phenylthiazole-2-carboxamido)phenyl)isoindolin-2-yl)butanoic acid]"
5,10 to 50%,"CC(C)C[C@@H](C(=O)O)N1Cc2cc(-c3ccc(NC(=O)Nc4cccc(C(F)(F)F)c4)cc3)ccc2C1=O [Example 388, (S)-4-Methyl-2-(1-oxo-5-(4-(3-(3-(trifluoromethyl)phenyl)ureido)phenyl)isoindolin-2-yl)pentanoic acid]"
6,> 50%,"CCCCCc1ccc(C(=O)Nc2ccc(-c3ccc4c(c3)C(=O)N([C@H](C(=O)O)C(C)C)C4)c(F)c2)cc1 [Example 610, (S)-2-(6-(2-Fluoro-4-(4-pentylbenzamido)phenyl)-1-oxoisoindolin-2-yl)-3-methyl butanoic acid]"
7,> 50%,"CC(C)[C@@H](C(=O)O)N1Cc2ccc(-c3ccc(NC(=O)Nc4ccc5c(c4)CCC5)cn3)cc2C1=O [Example 402, (S)-2-(6-(5-(3-(2,3-Dihydro-1H-inden-5-yl)ureido)pyridin-2-yl)-1-oxoisoindolin-2-yl)-3-methylbutanoic acid]"
8,> 50%,"CC(C)[C@@H](C(=O)O)N1Cc2ccc(-c3ccc(NC(=O)c4ccc(C(C)(C)C)cc4)cc3Cl)cc2C1=O [Example 480, (S)-2-(6-(4-(4-tert-Butylbenzamido)-2-chlorophenyl)-1-oxoisoindolin-2-yl)-3-methylbutanoic acid]"
9,> 50%,"CC(C)[C@@H](C(=O)O)N1Cc2ccc(-c3ccc(NC(=O)c4ccc(OC(F)(F)F)cc4)cc3Cl)cc2C1=O [Example 488, (S)-2-(6-(2-Chloro-4-(4-(trifluoromethoxy)benzamido)phenyl)-1-oxoisoindolin-2-yl)-3-methylbutanoic acid]"
10,10 to 50%,"Cc1ccc(NC(=O)Nc2ccc(-c3ccc4c(c3)C(=O)N([C@H](C(=O)O)C(C)C)C4)c(C(F)(F)F)c2)cc1C [Example 422, (S)-2-(6-(4-(3-(3,4-Dimethylphenyl)ureido)-2-(trifluoromethyl)phenyl)-1-oxoisoindolin-2-yl)-3-methylbutanoic acid]"
11,> 50%,"CC(C)[C@@H](C(=O)O)N1Cc2ccc(-c3ccc(NC(=O)c4ccc(C(C)(C)C)cc4)c(F)c3)cc2C1=O [Example 444, (S)-2-(6-(4-(4-tert-Butylbenzamido)-3-fluorophenyl)-1-oxoisoindolin-2-yl)-3-methylbutanoic acid]"

# The next lines start with the compound.
row,Structure (SMILES),inhibition at 1 µM
1,"CCCCCCCc1ccc(C(=O)Nc2ccc(-c3ccc4c(c3)C(=O)N([C@H](C(=O)O)C(C)C)C4)cc2)cc1 [Example 184, (S)-2-(6-(4-(4-Heptylbenzamido)phenyl)-1-oxoisoindolin-2-yl)-3-methylbutanoic acid]",> 50%
2,"CC(C)[C@@H](C(=O)O)N1Cc2ccc(-c3ccc(NC(=O)Nc4ccc(F)cc4F)cc3)cc2C1=O [Example 10, (S)-2-(6-(4-(3-(2,4-Difluorophenyl)ureido)phenyl)-1-oxoisoindolin-2-yl)-3-methylbutanoic acid]",10 to 50%
3,"CC(C)[C@@H](C(=O)O)N1Cc2ccc(-c3ccc(NC(=O)c4ccc(N5CCCC5)nc4)cc3)cc2C1=O [Example 217, (S)-3-Methyl-2-(1-oxo-6-(4-(6-(pyrrolidin-1-yl)nicotinamido)phenyl)isoindolin-2-yl)butanoic acid]",> 50%
4,"CC(C)[C@@H](C(=O)O)N1Cc2cc(-c3ccc(NS(=O)(=O)c4ccc(F)c(F)c4)cc3)ccc2C1=O [Example 289, (S)-2-(5-(4-(3,4-Difluorophenylsulfonamido)phenyl)-1-oxoisoindolin-2-yl)-3-methylbutanoic acid]",10 to 50%
5,"CC(C)[C@@H](C(=O)O)N1Cc2ccc(-c3ccc(NC(=O)c4ccc(F)cc4)cc3)cc2C1=O [Example 100, (S)-2-(6-(4-(4-Fluorobenzamido)phenyl)-1-oxoisoindolin-2-yl)-3-methylbutanoic acid]",> 50%
6,"CC(C)[C@@H](C(=O)O)N1Cc2ccc(-c3ccc(NC(=S)Nc4cccc(Cl)c4)cc3)cc2C1=O [Example 64, (S)-2-(6-(4-(3-(3-Chlorophenyl)thioureido)phenyl)-1-oxoisoindolin-2-yl)-3-methyl butanoic acid]",10 to 50%
7,"CC(C)[C@@H](C(=O)O)N1Cc2cc(-c3ccc(NC(=O)Nc4cccc(C(F)(F)F)c4)cc3)ccc2C1=O [Example 247, (S)-3-Methyl-2-(1-oxo-5-(4-(3-(3-(trifluoromethyl)phenyl)ureido)phenyl)isoindolin-2-yl)butanoic acid]",> 50%
8,"CCCCCCCCc1ccc(C(=O)Nc2ccc(-c3ccc4c(c3)C(=O)N([C@H](C(=O)O)C(C)C)C4)cc2)cc1 [Example 172, (S)-3-Methyl-2-(6-(4-(4-octylbenzamido)phenyl)-1-oxoisoindolin-2-yl)butanoic acid]",> 50%
9,"CC(C)[C@@H](C(=O)O)N1Cc2cc(-c3ccc(NC(=O)NCc4ccccc4)cc3)ccc2C1=O [Example 233, (S)-2-(5-(4-(3-Benzylureido)phenyl)-1-oxoisoindolin-2-yl)-3-methylbutanoic acid]",10 to 50%
10,"CC(C)[C@@H](C(=O)O)N1Cc2ccc(-c3ccc(NC(=O)Nc4cc(F)cc(F)c4)cc3)cc2C1=O [Example 30, (S)-2-(6-(4-(3-(3,5-Difluorophenyl)ureido)phenyl)-1-oxoisoindolin-2-yl)-3-methylbutanoic acid]",10 to 50%
11,"CCc1ccc(C(=O)Nc2ccc(-c3ccc4c(c3)C(=O)N([C@H](C(=O)O)C(C)C)C4)cc2)cc1 [Example 168, (S)-2-(6-(4-(4-Ethylbenzamido)phenyl)-1-oxoisoindolin-2-yl)-3-methylbutanoic acid]",> 50%
12,"CC(C)[C@@H](C(=O)O)N1Cc2ccc(-c3ccc(NC(=O)c4ccc(C(F)(F)F)cc4)cc3)cc2C1=O [Example 102, (S)-3-Methyl-2-(1-oxo-6-(4-(4-(trifluoromethyl)benzamido)phenyl)isoindolin-2-yl)butanoic acid]",> 50%
13,"COc1ccc(NC(=O)Nc2ccc(-c3ccc4c(c3)C(=O)N([C@H](C(=O)O)C(C)C)C4)cc2)cc1 [Example 28, (S)-2-(6-(4-(3-(4-Methoxyphenyl)ureido)phenyl)-1-oxoisoindolin-2-yl)-3-methylbutanoic acid]",10 to 50%
14,"Cc1ccc(NC(=O)Nc2ccc(-c3ccc4c(c3)CN([C@H](C(=O)O)C(C)C)C4=O)cc2)cc1 [Example 241, (S)-3-Methyl-2-(1-oxo-5-(4-(3-p-tolylureido)phenyl)isoindolin-2-yl)butanoic acid]",> 50%
